Test results taken from patent US20240270741A1 (Cogent Biosciences, Inc., priority 2023, published 2024).

Biological target: FGFR2 (Homo sapiens, UniProt P21802)
Assay: FGFR wild type enzyme assay (HTRF KinEASE-TK), FGFR2
Conditions: Enz FGFR2 (nM), FGFR2 wild type enzyme assay

Chain of FGFR2 (P21802 399-821 limits assumed): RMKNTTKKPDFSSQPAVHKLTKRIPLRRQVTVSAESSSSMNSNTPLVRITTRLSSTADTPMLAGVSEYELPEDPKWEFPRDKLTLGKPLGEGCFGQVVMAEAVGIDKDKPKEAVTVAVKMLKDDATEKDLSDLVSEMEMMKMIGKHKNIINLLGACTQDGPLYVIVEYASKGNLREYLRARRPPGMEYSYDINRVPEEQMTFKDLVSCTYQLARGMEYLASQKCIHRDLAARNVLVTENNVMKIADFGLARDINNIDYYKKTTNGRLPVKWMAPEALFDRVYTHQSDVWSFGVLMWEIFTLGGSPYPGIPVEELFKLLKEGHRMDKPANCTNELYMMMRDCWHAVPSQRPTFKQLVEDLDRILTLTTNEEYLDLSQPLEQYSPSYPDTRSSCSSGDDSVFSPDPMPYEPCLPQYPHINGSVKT

| SMILES | IC50 |
| --- | --- |
| Cc1c(-c2cc(Sc3ccc(F)cc3C#N)c3c(C#N)cnn3c2)cnn1[C@H]1CCCNC1 [Example 333, (S)-4-((2-cyano-4-fluorophenyl)thio)-6-(5-methyl-1-(piperidin-3-yl)-1H-pyrazol-4-yl)pyrazolo[1,5-a]pyridine-3-carbonitrile] | 1 nM |
| CC(=O)N1CCC[C@H](n2ncc(-c3cc(Sc4ccc(F)cc4C#N)c4c(C#N)cnn4c3)c2C)C1 [Example 334, (S)-6-(1-(1-acetylpiperidin-3-yl)-5-methyl-1H-pyrazol-4-yl)-4-((2-cyano-4-fluorophenyl)thio)pyrazolo [1,5-a]pyridine-3-carbonitrile] | 1 nM |
| Cc1c(-c2cc(Sc3ccc(F)cc3C#N)c3c(C#N)cnn3c2)cnn1[C@H]1CCCN(C)C1 [Example 335, (S)-4-((2-cyano-4-fluorophenyl)thio)-6-(5-methyl-1-(1-methylpiperidin-3-yl)-1H-pyrazol-4-yl)pyrazolo[1,5-a]pyridine-3-carbonitrile] | 1 nM |
| Cc1c(-c2cc(Sc3ccc(F)cc3C#N)c3c(C#N)cnn3c2)cnn1[C@H]1CCCN(CCO)C1 [Example 336, (S)-4-((2-cyano-4-fluorophenyl)thio)-6-(1-(1-(2-hydroxyethyl)piperidin-3-yl)-5-methyl-1H-pyrazol-4-yl)pyrazolo[1,5-a]pyridine-3-carbonitrile] | 1 nM |
| Cc1nn([C@H]2CC[C@@H](N(C)C)CC2)c(C)c1-c1cc(Sc2ccccc2C#N)c2c(C#N)cnn2c1 [Example 337, 4-((2-cyanophenyl)thio)-6-(1-((1s,4s)-4-(dimethylamino)cyclohex-yl)-3,5-dimethyl-1H-pyrazol-4-yl)pyrazolo[1,5-a]pyridine-3-carbonitrile] | 3 nM |
| CC(=O)N1CCC(n2ncc(-c3cc(Sc4ccc(F)cc4C#N)c4c(C#N)cnn4c3)c2C)CC1 [Example 338, 6-(1-(1-acetylpiperidin-4-yl)-5-methyl-1H-pyrazol-4-yl)-4-((2-cyano-4-fluorophenyl)thio)pyrazolo [1,5-a]pyridine-3-carbonitrile] | 1 nM |
| Cc1c(-c2cc(Sc3ccc(F)cc3C#N)c3c(C#N)cnn3c2)cnn1C1CCN(C(=O)CO)CC1 [Example 339, 4-((2-cyano-4-fluorophenyl)thio)-6-(1-(1-(2-hydroxyacetyl)piperidin-4-yl)-5-methyl-1H-pyrazol-4-yl)pyrazolo[1,5-a]pyridine-3-carbonitrile] | 1 nM |
| C#Cc1cnn2cc(-c3cnn(C4CCN(C(=O)CO)CC4)c3C)cc(Sc3ccc(F)cn3)c12 [Example 340, 1-(4-(4-(3-ethynyl-4-((5-fluoropyridin-2-yl)thio)pyrazolo[1,5-a]pyridin-6-yl)-5-methyl-1H-pyrazol-1-yl)piperidin-1-yl)-2-hydroxyethan-1-one] | 7.5 nM |
| Cc1c(-c2cc(Sc3ccc(F)cn3)c3c(C#N)cnn3c2)cnn1C1CCN(C(=O)[C@H](C)O)CC1 [Example 341, (S)-4-((5-fluoropyridin-2-yl)thio)-6-(1-(1-(2-hydroxypropanoyl)piperidin-4-yl)-5-methyl-1H-pyrazol-4-yl)pyrazolo[1,5-a]pyridine-3-carbonitrile] | 9 nM |
| Cc1c(-c2cc(Sc3ncc(F)cc3F)c3c(C#N)cnn3c2)cnn1C1CCN(C(=O)[C@H](C)O)CC1 [Example 342, (S)-4-((3,5-difluoropyridin-2-yl)thio)-6-(1-(1-(2-hydroxypropanoyl)piperidin-4-yl)-5-methyl-1H-pyrazol-4-yl)pyrazolo[1,5-a]pyridine-3-carbonitrile] | 6 nM |
| Cc1c(-c2cc(Sc3ccc(F)cn3)c3c(C#N)cnn3c2)cnn1[C@H]1CCCN(C)C1 [Example 343, (S)-4-((5-fluoropyridin-2-yl)thio)-6-(5-methyl-1-(1-methylpiperidin-3-yl)-1H-pyrazol-4-yl)pyrazolo[1,5-a]pyridine-3-carbonitrile] | 9 nM |
| Cc1c(-c2cc(Sc3ncc(F)cc3F)c3c(C#N)cnn3c2)cnn1[C@H]1CC[C@@H](NC(=O)CO)CC1 [Example 344, N-((1s,4s)-4-(4-(3-cyano-4-((3,5-difluoropyridin-2-yl)thio)pyrazolo[1,5-a]pyridin-6-yl)-5-methyl-1H-pyrazol-1-yl)cyclohexyl)-2-hydroxyacetamide] | 3 nM |

Next, values leading:

| IC50 | SMILES |
| --- | --- |
| 4 nM | Cc1c(-c2cc(Sc3ncc(F)cc3F)c3c(C#N)cnn3c2)cnn1[C@H]1CCCNC1 [Example 345, (S)-4-((3,5-difluoropyridin-2-yl)thio)-6-(5-methyl-1-(piperidin-3-yl)-1H-pyrazol-4-yl)pyrazolo[1,5-a]pyridine-3-carbonitrile] |
| 5 nM | Cc1c(-c2cc(Sc3ncc(F)cc3F)c3c(C#N)cnn3c2)cnn1[C@H]1CCCN(C)C1 [Example 346, (S)-4-((3,5-difluoropyridin-2-yl)thio)-6-(5-methyl-1-(1-methylpiperidin-3-yl)-1H-pyrazol-4-yl)pyrazolo[1,5-a]pyridine-3-carbonitrile] |
| 2.5 nM | CN[C@H]1CC[C@H](n2ncc(-c3cc(Sc4ccccn4)c4c(C#N)cnn4c3)c2C)CC1 [Example 347, 6-(5-methyl-1-((1r,4r)-4-(methylamino)cyclohexyl)-1H-pyrazol-4-yl)-4-(pyridin-2-ylthio)pyrazolo[1,5-a]pyridine-3-carbonitrile] |
| 2 nM | CN[C@]1(C)CC[C@H](n2ncc(-c3cc(Sc4ccccn4)c4c(C#N)cnn4c3)c2C)CC1 [Example 348, 6-(5-methyl-1-((1s,4s)-4-methyl-4-(methylamino)cyclohexyl)-1H-pyrazol-4-yl)-4-(pyridin-2-ylthio)pyrazolo[1,5-a]pyridine-3-carbonitrile] |
| 3 nM | CC(=O)N[C@H]1CC[C@@H](n2cc(-c3cc(Sc4ccc(F)cn4)c4c(C#N)cnn4c3)cn2)CC1 [Example 349, N-((1s,4s)-4-(4-(3-cyano-4-((5-fluoropyridin-2-yl)thio)pyrazolo[1,5-a]pyridin-6-yl)-1H-pyrazol-1-yl)cyclohexyl)acetamide] |
| 0.5 nM | CC(=O)N[C@H]1CC[C@H](n2cc(-c3cc(Sc4ccccc4C#N)c4c(C#N)cnn4c3)cn2)C1 [Example 350, N-((1s,3S)-3-(4-(3-cyano-4-((2-cyanophenyl)thio)pyrazolo [1,5-a]pyridin-6-yl)-1H-pyrazol-1-yl)cyclopentyl)acetamide] |
| 0.5 nM | Cc1c(-c2cc(Sc3ccc(F)cc3C#N)c3c(C#N)cnn3c2)cnn1[C@H]1CC[C@](C)(N)CC1 [Example 351, 6-(1-((1r,4r)-4-amino-4-methylcyclohexyl)-5-methyl-1H-pyrazol-4-yl)-4-((2-cyano-4-fluorophenyl)thio)pyrazolo [1,5-a]pyridine-3-carbonitrile] |
| 0.6 nM | CN[C@]1(C)CC[C@@H](n2ncc(-c3cc(Sc4ccc(F)cc4C#N)c4c(C#N)cnn4c3)c2C)CC1 [Example 352, 4-((2-cyano-4-fluorophenyl)thio)-6-(5-methyl-1-((1r,4r)-4-methyl-4-(methylamino)cyclohexyl)-1H-pyrazol-4-y)pyrazolo[1,5-a]pyridine-3-carbonitrile] |
| 1 nM | Cc1c(-c2cc(Sc3ccc(F)cc3C#N)c3c(C#N)cnn3c2)cnn1C1CCN(CCO)CC1 [Example 353, 4-((2-cyano-4-fluorophenyl)thio)-6-(1-(1-(2-hydroxyethyl)piperidin-4-yl)-5-methyl-1H-pyrazol-4-yl)pyrazolo[1,5-a]pyridine-3-carbonitrile] |
